PubChem BioAssay AID2060894 (Molecular Pharmacology Branch, DTP, NCI, 2025)
pIC50: −log10 of the molar value.

Test system: K12877-001-R-J1-PDC complex spheroid viability
Assay: Anticancer human tumor K12877-001-R-J1-PDC patient-derived lung adenocarcinoma cell line growth inhibition [RAS]
Settings: for pIC50: curve of first compound; for viability, T/C: stronger effect = lower value; active = viability on the fitted dose curve at most 10% of control; inactive = the rest
Outline: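 Multi-cell-type spheroids: tumor cells plus HUVEC endothelial cells and mesenchymal stem cells. RAS-pathway inhibitors were combined with targeted agents, each dosed in half-log steps down from clinical Cmax, or from 10 microM when Cmax was unknown.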

[1] = second compound 0.000949 µM, first compound 0.0316 µM
[2] = second compound 0.000949 µM, first compound 0.1 µM
[3] = second compound 0.000949 µM, first compound 0.316 µM
[4] = second compound 0.000949 µM, first compound 1 µM
[5] = second compound 0.000949 µM, first compound 3.16 µM
[6] = second compound 0.000949 µM, first compound 10 µM
[7] = second compound 0.003 µM, first compound 0.0316 µM
[8] = second compound 0.003 µM, first compound 0.1 µM
[9] = second compound 0.003 µM, first compound 0.316 µM
[10] = second compound 0.003 µM, first compound 1 µM
[11] = second compound 0.003 µM, first compound 3.16 µM
[12] = second compound 0.003 µM, first compound 10 µM
[13] = second compound 0.00949 µM, first compound 0.0316 µM
[14] = second compound 0.00949 µM, first compound 0.1 µM
[15] = second compound 0.00949 µM, first compound 0.316 µM
[16] = second compound 0.00949 µM, first compound 1 µM
[17] = second compound 0.00949 µM, first compound 3.16 µM
[18] = second compound 0.00949 µM, first compound 10 µM
[19] = second compound 0.03 µM, first compound 0.0316 µM
[20] = second compound 0.03 µM, first compound 0.1 µM
[21] = second compound 0.03 µM, first compound 0.316 µM
[22] = second compound 0.03 µM, first compound 1 µM
[23] = second compound 0.03 µM, first compound 3.16 µM
[24] = second compound 0.03 µM, first compound 10 µM
[25] = second compound 0.0949 µM, first compound 0.0316 µM
[26] = second compound 0.0949 µM, first compound 0.1 µM
[27] = second compound 0.0949 µM, first compound 0.316 µM
[28] = second compound 0.0949 µM, first compound 1 µM
[29] = second compound 0.0949 µM, first compound 3.16 µM
[30] = second compound 0.0949 µM, first compound 10 µM
[31] = second compound 0.3 µM, first compound 0.0316 µM
[32] = second compound 0.3 µM, first compound 0.1 µM
[33] = second compound 0.3 µM, first compound 0.316 µM
[34] = second compound 0.3 µM, first compound 1 µM
[35] = second compound 0.3 µM, first compound 3.16 µM
[36] = second compound 0.3 µM, first compound 10 µM
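Note: spheroids exposed to agents for one week before readout.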
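Throughout, for viability, T/C: tumour cells co-cultured with HUVEC and mesenchymal stem cells in spheroids.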

CC1(O)CCCC1n1c(=O)c(C(F)F)cc2cnc(NC3CCN(S(C)(=O)=O)CC3)nc21 (centres undefined) + CCn1c(-c2cccnc2C(C)OC)c2c3cc(ccc31)N1CCOC(CC(NC(=O)C(C(C)C)N(C)C(=O)C3(F)CCN(C(=O)C#CC(C)(C)N(C)C)CC3)C(=O)N3CCCC(N3)C(=O)OCC(C)(C)C2)C1
inactive: viability, T/C [1] 89.8% | viability, T/C [2] 61.3% | viability, T/C [3] 31.9% | viability, T/C [4] 38.7% | viability, T/C [5] 23.8% | viability, T/C [7] 76% | viability, T/C [8] 46.7% | viability, T/C [9] 31.2% | viability, T/C [10] 34.5% | viability, T/C [11] 21.3% | viability, T/C [13] 71.9% | viability, T/C [14] 43.5% | viability, T/C [15] 33.3% | viability, T/C [16] 36.8% | viability, T/C [17] 33.7% | viability, T/C [18] 2.22% | viability, T/C [19] 66.2% | viability, T/C [20] 45.8% | viability, T/C [21] 32.1% | viability, T/C [22] 34.5% | viability, T/C [23] 27.8% | viability, T/C [25] 55.7% | viability, T/C [26] 56.5% | viability, T/C [27] 27.5% | viability, T/C [28] 27.9% | viability, T/C [29] 33.9% | viability, T/C [31] 68.5% | viability, T/C [32] 51.2% | viability, T/C [33] 27.1% | viability, T/C [34] 25.7% | viability, T/C [35] 20.3%
6.69: pIC50 (second compound 0.000949 µM)
6.97: pIC50 (second compound 0.03 µM)
7.01: pIC50 (second compound 0.3 µM)
6.87: pIC50 (second compound 0.00949 µM)
6.90: pIC50 (second compound 0.003 µM)
active: viability, T/C [6] 2.35% | viability, T/C [12] 2.96% | viability, T/C [24] 2.85% | viability, T/C [30] 2.46% | viability, T/C [36] 2.35%
7.09: pIC50 (second compound 0.0949 µM)

CCC(CC)c1cc(NC2CCC(N)C2)n2nccc2n1 (centres undefined) + CCn1c(-c2cccnc2C(C)OC)c2c3cc(ccc31)N1CCOC(CC(NC(=O)C(C(C)C)N(C)C(=O)C3(F)CCN(C(=O)C#CC(C)(C)N(C)C)CC3)C(=O)N3CCCC(N3)C(=O)OCC(C)(C)C2)C1
5.89: pIC50 (second compound 0.000949 µM)
6.04: pIC50 (second compound 0.03 µM)
5.99: pIC50 (second compound 0.003 µM)
6.06: pIC50 (second compound 0.00949 µM)
active: viability, T/C [5] 1.95% | viability, T/C [6] 0.98% | viability, T/C [11] 1.27% | viability, T/C [12] 1.35% | viability, T/C [17] 1.95% | viability, T/C [18] 0.75% | viability, T/C [23] 1.63% | viability, T/C [24] 1.21% | viability, T/C [29] 1.61% | viability, T/C [30] 1.11% | viability, T/C [35] 1.98% | viability, T/C [36] 0.91%
6.29: pIC50 (second compound 0.3 µM)
6.09: pIC50 (second compound 0.0949 µM)
inactive: viability, T/C [1] 78.9% | viability, T/C [2] 83.2% | viability, T/C [3] 80.2% | viability, T/C [4] 64.3% | viability, T/C [7] 72% | viability, T/C [8] 85.8% | viability, T/C [9] 72.8% | viability, T/C [10] 51% | viability, T/C [13] 85.2% | viability, T/C [14] 70.9% | viability, T/C [15] 69.5% | viability, T/C [16] 48% | viability, T/C [19] 74% | viability, T/C [20] 70.5% | viability, T/C [21] 69.2% | viability, T/C [22] 48% | viability, T/C [25] 83.6% | viability, T/C [26] 70.2% | viability, T/C [27] 75% | viability, T/C [28] 44.2% | viability, T/C [31] 76.8% | viability, T/C [32] 69.9% | viability, T/C [33] 61.7% | viability, T/C [34] 33.5%
